In the NIST ThermoML archive (doi:10.1016/j.jct.2007.04.005):
± gives the expanded uncertainty stated by the source.

Test: xn = mol fraction of the nth substance listed
Conditions: 308.15 K, Liquid

CCCCCCCCC [nonane] + C1CCCCC1
mass density [kg/m3]
Conditions	x2 = 0	x2 = 0.09303	x2 = 0.2009	x2 = 0.3051	x2 = 0.417	x2 = 0.512	x2 = 0.5996	x2 = 0.7052	x2 = 0.7993	x2 = 0.9039
18340 kPa	–	–	–	–	–	–	–	752.9 ± 1.2	760 ± 1.2	769.1 ± 1.2
20370 kPa	721.7 ± 1.5	724.7 ± 1.5	728.6 ± 1.5	732.8 ± 1.5	737.8 ± 1.4	742.4 ± 1.4	747.6 ± 1.4	754.4 ± 1.3	761.5 ± 1.3	770.6 ± 1.2
22390 kPa	723.1 ± 1.6	726.1 ± 1.6	730.1 ± 1.6	734.3 ± 1.5	739.3 ± 1.5	743.9 ± 1.5	749.1 ± 1.4	755.9 ± 1.4	763 ± 1.3	772.1 ± 1.3
24420 kPa	724.5 ± 1.7	727.5 ± 1.7	731.5 ± 1.6	735.7 ± 1.6	740.7 ± 1.6	745.3 ± 1.5	750.5 ± 1.5	757.4 ± 1.5	764.4 ± 1.4	773.6 ± 1.4
26450 kPa	725.9 ± 1.8	728.9 ± 1.8	732.9 ± 1.7	737.1 ± 1.7	742.1 ± 1.6	746.8 ± 1.6	751.9 ± 1.6	758.8 ± 1.5	765.8 ± 1.5	775.1 ± 1.4
28470 kPa	727.2 ± 1.9	730.3 ± 1.8	734.2 ± 1.8	738.4 ± 1.8	743.5 ± 1.7	748.1 ± 1.7	753.3 ± 1.6	760.2 ± 1.6	767.2 ± 1.5	776.5 ± 1.5
29490 kPa	727.8 ± 1.9	730.9 ± 1.9	734.9 ± 1.8	739.1 ± 1.8	744.1 ± 1.7	748.7 ± 1.7	754 ± 1.7	760.9 ± 1.6	767.9 ± 1.6	777.2 ± 1.5
30500 kPa	728.5 ± 1.9	731.6 ± 1.9	735.6 ± 1.9	739.8 ± 1.8	744.8 ± 1.8	749.4 ± 1.7	754.7 ± 1.7	761.6 ± 1.7	768.6 ± 1.6	777.9 ± 1.5
32530 kPa	729.8 ± 2	732.9 ± 2	736.9 ± 1.9	741.1 ± 1.9	746.1 ± 1.9	750.8 ± 1.8	756 ± 1.8	762.9 ± 1.7	770 ± 1.7	779.3 ± 1.6
34550 kPa	731.1 ± 2.1	734.2 ± 2.1	738.2 ± 2	742.4 ± 2	747.4 ± 1.9	752 ± 1.9	757.3 ± 1.8	764.3 ± 1.8	771.3 ± 1.7	780.6 ± 1.7
36580 kPa	732.4 ± 2.2	735.4 ± 2.1	739.5 ± 2.1	743.7 ± 2	748.7 ± 2	753.3 ± 2	758.6 ± 1.9	765.6 ± 1.9	772.6 ± 1.8	781.9 ± 1.7
38600 kPa	733.6 ± 2.2	736.7 ± 2.2	740.8 ± 2.2	745 ± 2.1	750 ± 2.1	754.6 ± 2	759.9 ± 2	766.9 ± 1.9	773.9 ± 1.9	783.3 ± 1.8
39620 kPa	734.3 ± 2.3	737.4 ± 2.2	741.4 ± 2.2	745.6 ± 2.2	750.6 ± 2.1	755.3 ± 2.1	760.6 ± 2	767.5 ± 1.9	774.5 ± 1.9	783.9 ± 1.8
